# Source: patent US10906910B2, “Substituted bicyclic pyrimidine compounds with tubulin and multiple receptor inhibition” (Duquesne University of the Holy Spirit, priority 2014, dated 2021)
# Experiments:
# Assay type in all cases: cell-based
# HCC-2998 = test: NCI 60 panel, Colon Cancer HCC-2998; conditions: Homo sapiens, read-out: Tumor cell inhibitory activity (NCI) GI50
# K-562 = test: NCI 60 panel, Leukemia K-562; conditions: Homo sapiens, K562, read-out: Tumor cell inhibitory activity (NCI) GI50
# A431 cells = test: A431 cytotoxicity; conditions: Homo sapiens, A-431
# RXF 393 = test: NCI 60 panel, Renal Cancer RXF 393; conditions: Homo sapiens, read-out: Tumor cell inhibitory activity (NCI) GI50
# MCF7 = test: NCI 60 panel, Breast Cancer MCF7; conditions: Homo sapiens, read-out: Tumor cell inhibitory activity (NCI) GI50
# SK-MEL-2 = test: NCI 60 panel, Melanoma SK-MEL-2; conditions: Homo sapiens, read-out: Tumor cell inhibitory activity (NCI) GI50
# RPMI-8226 = test: NCI 60 panel, Leukemia RPMI-8226; conditions: Homo sapiens, read-out: Tumor cell inhibitory activity (NCI) GI50
# HL-60(TB) = test: NCI 60 panel, Leukemia HL-60(TB); conditions: Homo sapiens, read-out: Tumor cell inhibitory activity (NCI) GI50
# EGFR = EGFR (Homo sapiens, UniProt P00533); test: EGFR kinase inhibition, whole-cell assay; conditions: read-out: kinase inhibition IC50 [whole-cell assays] EGFR
# CAKI-1 = test: NCI 60 panel, Renal Cancer CAKI-1; conditions: Homo sapiens, read-out: Tumor cell inhibitory activity (NCI) GI50
# SNB-19 = test: NCI 60 panel, CNS Cancer SNB-19; conditions: Homo sapiens, read-out: Tumor cell inhibitory activity (NCI) GI50
# SF-539 = test: NCI 60 panel, CNS Cancer SF-539; conditions: Homo sapiens, read-out: Tumor cell inhibitory activity (NCI) GI50
# UO-31 = test: NCI 60 panel, Renal Cancer UO-31; conditions: Homo sapiens, read-out: Tumor cell inhibitory activity (NCI) GI50
# SW-620 = test: NCI 60 panel, Colon Cancer SW-620; conditions: Homo sapiens, read-out: Tumor cell inhibitory activity (NCI) GI50
# EGFR, sequence (P00533 25-1210, species assumed): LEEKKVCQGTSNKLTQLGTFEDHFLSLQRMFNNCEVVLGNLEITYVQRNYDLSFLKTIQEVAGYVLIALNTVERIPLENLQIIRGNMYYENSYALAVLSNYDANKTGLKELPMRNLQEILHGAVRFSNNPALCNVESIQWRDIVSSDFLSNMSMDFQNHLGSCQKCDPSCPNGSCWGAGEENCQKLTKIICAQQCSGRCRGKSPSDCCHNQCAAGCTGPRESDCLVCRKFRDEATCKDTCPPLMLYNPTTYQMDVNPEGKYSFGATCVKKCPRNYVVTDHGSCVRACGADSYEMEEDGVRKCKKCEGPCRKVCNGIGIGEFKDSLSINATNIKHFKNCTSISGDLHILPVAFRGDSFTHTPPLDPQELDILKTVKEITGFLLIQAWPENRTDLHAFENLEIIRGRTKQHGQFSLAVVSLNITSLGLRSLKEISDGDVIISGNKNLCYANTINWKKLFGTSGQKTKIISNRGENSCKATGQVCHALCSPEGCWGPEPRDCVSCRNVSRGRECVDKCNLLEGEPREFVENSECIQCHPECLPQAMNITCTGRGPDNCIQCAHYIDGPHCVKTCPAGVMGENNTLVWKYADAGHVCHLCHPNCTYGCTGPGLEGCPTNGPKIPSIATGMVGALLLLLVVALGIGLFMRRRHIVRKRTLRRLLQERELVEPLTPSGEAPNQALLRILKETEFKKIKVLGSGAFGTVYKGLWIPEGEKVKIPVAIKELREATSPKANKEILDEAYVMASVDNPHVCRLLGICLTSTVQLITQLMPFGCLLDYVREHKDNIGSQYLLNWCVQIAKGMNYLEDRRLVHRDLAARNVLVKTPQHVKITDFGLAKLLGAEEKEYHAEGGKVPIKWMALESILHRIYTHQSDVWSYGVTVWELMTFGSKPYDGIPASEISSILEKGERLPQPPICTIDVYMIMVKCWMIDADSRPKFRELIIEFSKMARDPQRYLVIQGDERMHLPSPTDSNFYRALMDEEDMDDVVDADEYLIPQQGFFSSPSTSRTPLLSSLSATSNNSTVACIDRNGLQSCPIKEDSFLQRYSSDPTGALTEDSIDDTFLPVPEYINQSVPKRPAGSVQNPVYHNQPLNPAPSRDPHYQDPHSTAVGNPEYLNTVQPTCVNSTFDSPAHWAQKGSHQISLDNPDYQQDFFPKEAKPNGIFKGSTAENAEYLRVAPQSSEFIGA
compound,measurement,setting,value
"COc1ccc(N(C)c2nc(C)nc3c(Cc4ccccc4)cn(C)c23)cc1 [Compound 4, 7-Benzyl-N-(4-methoxyphenyl)-N,2,5-trimethyl-5H-pyrrolo[3,2-d]pyrimidin-4-amine]",GI50,HCC-2998,71.1 nM
same,GI50,K-562,33.7 nM
same,IC50,A431 cells,1.2 nM
same,GI50,RXF 393,25.4 nM
same,GI50,MCF7,33.3 nM
same,GI50,SK-MEL-2,28.6 nM
same,GI50,RPMI-8226,36.9 nM
same,GI50,HL-60(TB),26.8 nM
same,IC50,EGFR,2.3 ± 0.3 nM
same,GI50,CAKI-1,56.6 nM
same,GI50,SNB-19,54.7 nM
same,GI50,SF-539,25.4 nM
same,GI50,UO-31,209 nM
same,GI50,SW-620,38.4 nM
